≈ marks a conversion by molar mass, not a printed value.
Columns and labels:
Acinetobacter = test: Disk diffusion; assay type: cell-based; conditions: 37 isolates selected as resistant to beta-lactams
[1] = tested on: Streptococcus agalactiae strains P0162 and P0425; test: Microdilution; assay type: cell-based
H.influenzae = test: Broth microdilution; assay type: cell-based, Haemophilus influenzae
S. pneumoniae [2] = test: Broth microdilution; assay type: cell-based, Streptococcus pneumoniae
PRSP = test: Broth microdilution; assay type: cell-based, Streptococcus pneumoniae
ERSP = test: Broth microdilution; assay type: cell-based, Streptococcus pneumoniae
[3] = tested on: glycopeptide intermediate Staphylococcus species (GISS); test: VITEK II, screening plate and E test, blood isolates; assay type: cell-based, coagulase-negative Staphylococci; conditions: 73 GISS strains
MSSA = test: Agar dilution MIC; assay type: cell-based, Staphylococcus aureus; conditions: for MIC50 / MIC90: Staphylococcus aureus, MSSA
MRSA = test: Agar dilution MIC; assay type: cell-based, Staphylococcus aureus; conditions: Staphylococcus aureus, MRSA
S. pneumoniae [4] = test: PROTEKT Italy, NCCLS microdilution; assay type: cell-based, Streptococcus pneumoniae
S. pneumoniae [5] = test: Broth microdilution; assay type: cell-based, Streptococcus pneumoniae; conditions: 275 isolates
Shigella spp. = test: Disk diffusion, stool isolates Tehran; assay type: cell-based; conditions: 96 isolates
K. pneumoniae [6] = test: E-test susceptibility; assay type: cell-based, Klebsiella pneumoniae
Enterobacter spp = test: E-test susceptibility; assay type: cell-based
F. necrophorum = test: E-test, 13 clinical isolates; assay type: cell-based, Fusobacterium necrophorum
K. pneumoniae [7] = test: MIC; assay type: cell-based, Klebsiella pneumoniae; conditions: BSAC
[8] = NCCLS breakpoints (Amox/Clav 2/1 mcg/mL)
[9] = PK breakpoint of 4/2 mcg/mL, Augmentin ES-600

Work on `CC1(C)S[C@@H]2[C@H](NC(=O)[C@H](NC(=O)N3CCN(S(C)(=O)=O)C3=O)c3ccccc3)C(=O)N2[C@H]1C(=O)O` [mezlocillin] yielded a resistant isolates (Acinetobacter) of 100.0%.

In the case of `NC1CCN(c2c(F)cc3c(=O)c(C(=O)O)cn(C4CC4)c3c2Cl)C1` (centres unmarked) [clinafloxacin], the MIC ([1]; strain P0162 (ParC Ser79Phe, GyrA Glu85Ala)) is reported as 0.25 µg/mL (≈ 0.683 µM) and the MIC ([1]; strain P0425 (ParC Ser79Phe, GyrA Glu85Lys)) is reported as 0.75 µg/mL (≈ 2.05 µM).

With “Amoxicillin / Clavulanic acid [Amox/Clav]” the MIC90 (H.influenzae) was 2 µg/mL, the “%Sus” value (H.influenzae; NCCLS) was 99.2% and the MIC90 (S. pneumoniae [2]) was 2 µg/mL. For the same molecule, the “%Sus” value (S. pneumoniae [2]; [8]) was 92.3%, the “%Sus” value (S. pneumoniae [2]; [9]) was 96.5% and the MIC90 (PRSP) was 8 µg/mL. For the same molecule, the “%Sus” value (PRSP; [8]) was 67.1%, the “%Sus” value (PRSP; [9]) was 83.5% and the MIC90 (ERSP) was 8 µg/mL. The “%Sus” value (ERSP; [8]) was 81.5% and the “%Sus” value (ERSP; [9]) was 88.6%.

For `CO[C@H]1/C=C/O[C@@]2(C)Oc3c(C)c(O)c4c(O)c(c(/C=N/N5CCN(C)CC5)c(O)c4c3C2=O)NC(=O)/C(C)=C\C=C\[C@H](C)[C@H](O)[C@@H](C)[C@@H](O)[C@@H](C)[C@H](OC(C)=O)[C@@H]1C` [rifampin], the resistance rate [3] was 32,8%, the MIC50 (MSSA) was less than 0.0075 µg/mL and the MIC90 (MSSA) was less than 0.0375 µg/mL. The MIC50 (MRSA) was less than 32 µg/mL, the MIC90 (MRSA) was less than 32 µg/mL and the susceptible (S. pneumoniae [4]; year 1: 2002) was 96.7%. For the same molecule, the susceptible (S. pneumoniae [4]; year 2: 2003) was 98.9% and the Susceptibility (S. pneumoniae [5]) was 99.3%.

`CCN1CCN(C(=O)N[C@@H](C(=O)N[C@@H]2C(=O)N3C(C(=O)O)=C(CSc4nnnn4C)CS[C@H]23)c2ccc(O)cc2)C(=O)C1=O` [cefoperazone] showed a resistant isolates (Acinetobacter) of 100.0%.

`CC1(C)S[C@@H]2[C@H](NC(=O)C(C(=O)O)c3ccccc3)C(=O)N2[C@H]1C(=O)O` (some centres unmarked) [carbenicillin] was tested, and the resistant isolates (Acinetobacter) was 100.0%.

Work on `CO/N=C(\C(=O)N[C@@H]1C(=O)N2C(C(=O)O)=CCS[C@H]12)c1csc(N)n1` [ceftizoxime] yielded a sensitive (Shigella spp.) of 85% and a resistant isolates (Acinetobacter) of 86.5%.

`CN(C)c1cc(NC(=O)CNC(C)(C)C)c(O)c2c1C[C@H]1C[C@H]3[C@H](N(C)C)C(O)=C(C(N)=O)C(=O)[C@@]3(O)C(O)=C1C2=O` [Tigecycline] showed a Susceptible isolates (K. pneumoniae [6]; ICU) of 93%, a Susceptible isolates (K. pneumoniae [6]; non ICU) of 98% and a Susceptible isolates (Enterobacter spp; ICU) of 91%. It also gave a Susceptible isolates (Enterobacter spp; non ICU) of 96%.

For `C[C@H]1c2cccc(O)c2C(=O)C2=C(O)[C@]3(O)C(=O)C(C(N)=O)=C(O)[C@@H](N(C)C)[C@@H]3[C@@H](O)[C@@H]21` [doxycycline], the resistant isolates (Acinetobacter) was 54.1%, the MIC range (F. necrophorum) was 0.016 to 0.75 µg/mL and the MIC50 (F. necrophorum; Fusobacterium necrophorum) was 0.064 µg/mL (≈ 0.144 µM). For the same molecule, the MIC90 (F. necrophorum; Fusobacterium necrophorum) was 0.19 µg/mL (≈ 0.428 µM).

For colistin, the susceptibility category (K. pneumoniae [7]) was “susceptible”.

With `Cc1onc(-c2ccccc2Cl)c1C(=O)N[C@@H]1C(=O)N2[C@@H]1SC(C)(C)[C@@H]2C(=O)O` [Cloxacilin, cloxacillin] the MIC50 (MSSA) was less than 0.25 µg/mL, the MIC90 (MSSA) was less than 0.25 µg/mL and the MIC range (MSSA; n = 200) was 125 to 16000 µg/mL.
